Like-named read-outs stand apart in the source and are kept apart here. Bridge positions count the residues as written; N and C are the ends. Square brackets hold non-standard residues; d marks the D form. Peptide text beside a SMILES is read from it. Pen = CC(C)(S)[C@H](N)C(=O)O; Nle = CCCC[C@H](N)C(=O)O; GABA = NCCCC(=O)O
Tests used:
[1] = molecular target: T1, hMC3-R (Homo sapiens, UniProt P41968); assay: cyclic AMP bioassay (ECL) in CHO-K1 cells; format: cell-based
T1 construct: expressed in transfected cells; host or cells: CHO-K1
T1 sequence (P41968 whole entry): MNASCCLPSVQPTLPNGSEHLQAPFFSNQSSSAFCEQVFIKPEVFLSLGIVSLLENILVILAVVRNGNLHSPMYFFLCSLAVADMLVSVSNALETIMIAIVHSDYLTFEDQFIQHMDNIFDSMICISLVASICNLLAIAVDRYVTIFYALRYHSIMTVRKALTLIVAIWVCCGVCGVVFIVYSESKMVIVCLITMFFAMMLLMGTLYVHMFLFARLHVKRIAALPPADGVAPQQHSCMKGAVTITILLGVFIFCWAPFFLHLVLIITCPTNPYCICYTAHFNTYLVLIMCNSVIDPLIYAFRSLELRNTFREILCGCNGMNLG
Experimental: Intracellular cyclic AMP (cAMP) levels were determined by an electrochemiluminescence (ECL) assay (Meso Scale Discovery®, Gaithersburg, Md.; referred to hereinafter as MSD). […] Transgenic CHO-K1 cells stably expressing hMC receptor subtypes 1, 3, 4 or 5 were dispensed at a density of approximately 7,000 cells/well in 384-well Multi-Array®plates (MSD) containing integrated carbon electrodes and coated with anti-cAMP antibody. Increasing concentrations of the test compounds were added and the cells were incubated for approximately 40 minutes at approximately 37° C. […] At the end of the second incubation period read buffer (Tris-buffered solution containing an ECL co-reactant and Triton X-100 at ph 7.8) was added and the cAMP levels in the cell lysates were immediately determined by ECL detection with a Sector Imager 6000 Reader® (MSD). Data were analyzed using a computer-assisted non-linear regression analysis (XL fit; IDBS) and reported as either an EC50 value or a Kb value.
The Kb value reflects the potency of an antagonist and is determined by Schild analysis. In brief, concentration-response curves of an agonist are carried out in the presence of increasing concentrations of an antagonist. […] It is calculated by extrapolating the line on a Schild plot to zero on the y-axis.

[2] = molecular target: T2, hMC4-R (Homo sapiens, UniProt P32245); assay: cyclic AMP bioassay (ECL) in CHO-K1 cells; format: cell-based
T2 construct: expressed in transfected cells; host or cells: CHO-K1
T2 sequence (P32245 whole entry): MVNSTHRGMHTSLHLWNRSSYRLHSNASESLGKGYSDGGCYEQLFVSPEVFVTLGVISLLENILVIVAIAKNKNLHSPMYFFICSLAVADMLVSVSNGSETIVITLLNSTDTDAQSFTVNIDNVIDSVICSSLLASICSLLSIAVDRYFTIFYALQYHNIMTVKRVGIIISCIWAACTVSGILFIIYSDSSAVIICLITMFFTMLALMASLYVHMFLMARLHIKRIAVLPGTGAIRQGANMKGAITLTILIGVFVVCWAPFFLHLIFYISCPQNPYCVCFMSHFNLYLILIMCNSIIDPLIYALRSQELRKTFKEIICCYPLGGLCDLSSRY

[3] = molecular target: T3, hMC1-R (Homo sapiens, UniProt Q01726); assay: cyclic AMP bioassay (ECL) in CHO-K1 cells; format: cell-based
T3 construct: expressed in transfected cells; host or cells: CHO-K1
T3 sequence (Q01726 whole entry): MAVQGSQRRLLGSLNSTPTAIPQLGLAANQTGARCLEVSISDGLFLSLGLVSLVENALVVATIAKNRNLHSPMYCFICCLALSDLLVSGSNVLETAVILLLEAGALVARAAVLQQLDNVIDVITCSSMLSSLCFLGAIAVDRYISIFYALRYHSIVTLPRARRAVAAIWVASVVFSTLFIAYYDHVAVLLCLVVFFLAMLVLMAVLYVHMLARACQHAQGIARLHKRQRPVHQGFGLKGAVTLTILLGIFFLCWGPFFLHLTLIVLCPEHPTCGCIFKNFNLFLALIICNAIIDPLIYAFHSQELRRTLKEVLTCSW

[4] = molecular target: T1, hMC3-R; assay: Radioligand binding assay, [125I]-NDP-α-MSH competition, CHO-K1 membranes
Experimental: (§1) Cellular membranes used for the in vitro receptor binding assays were obtained from transgenic CHO-K1 cells stably expressing hMC-R receptor subtypes 1, 3, 4 or 5. […] The pellets were resuspended in the same buffer and centrifuged at 50,000 g for 10 minutes at approximately 4° C. The washed pellets containing the cellular membranes were stored at approximately −80° C.
(§2) Cell membranes (1-10 μg protein/well) prepared as described above were incubated in 50 mM Tris-HCl at pH 7.4 containing 0.2% bovine serum albumin (BSA), 5 mM MgCl2, 1 mM CaCl2 and 0.1 mg/mL bacitracin, with increasing concentrations of the test compound and 0.1-0.3 nM [^25I]-NDP-α-MSH for approximately 90-120 minutes at approximately 37° C. […] Filters were washed three times with 50 mM Tris-HCl at pH 7.4 at a temperature of approximately 0-4° C. and then assayed for radioactivity using a Packard Topcount® scintillation counter. Binding data were analyzed by computer-assisted non-linear regression analysis (XL fit; IDBS).

[5] = molecular target: T4, hMC5-R (Homo sapiens, UniProt P33032); assay: cyclic AMP bioassay (ECL) in CHO-K1 cells; format: cell-based
T4 construct: expressed in transfected cells; host or cells: CHO-K1
T4 sequence (P33032 whole entry): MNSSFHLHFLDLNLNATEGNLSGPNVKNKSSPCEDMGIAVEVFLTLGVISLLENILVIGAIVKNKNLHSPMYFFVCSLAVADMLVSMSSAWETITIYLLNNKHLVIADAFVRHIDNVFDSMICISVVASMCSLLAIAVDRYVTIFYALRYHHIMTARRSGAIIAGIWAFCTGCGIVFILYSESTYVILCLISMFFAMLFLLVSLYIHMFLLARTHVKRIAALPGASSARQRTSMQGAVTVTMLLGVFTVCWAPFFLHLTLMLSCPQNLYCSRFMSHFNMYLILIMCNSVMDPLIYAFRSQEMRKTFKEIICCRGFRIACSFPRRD

[6] = molecular target: T3, hMC1-R; assay: Radioligand binding assay, [125I]-NDP-α-MSH competition, CHO-K1 membranes
Experimental: as §1, §2

[7] = molecular target: T4, hMC5-R; assay: as above; conditions: Table 5; read-out: Ki hMC5-R
Experimental: as §1, §2

[8] = Table 9A/9B, read-out: EC50 hMC3-R
[9] = Table 9A/9B, read-out: EC50 hMC4-R
[10] = Table 9A/9B, read-out: EC50 hMC1-R
[11] = Table 9A/9B, read-out: EC50 hMC5-R

## CC(=O)N[C@H]1CSSC[C@@H](C(=O)N2CCC[C@H]2C(=O)N2CCC[C@H]2C(=O)N[C@@H](CCCCN)C(=O)N[C@@H](CC(=O)O)C(=O)NCCC(=O)N[C@@H](Cc2ccc(O)cc2)C(=O)NCC(=O)N[C@@H](CCCNC(=N)N)C(=O)N[C@@H](CCCCN)C(=O)N[C@@H](CCCNC(=N)N)C(=O)N[C@@H](CCCNC(=N)N)C(=O)N[C@@H](CCCNC(=N)N)C(=O)N[C@@H](CCC(N)=O)C(=O)N[C@@H](CCCNC(=N)N)C(=O)N[C@@H](CCCNC(=N)N)C(=O)N[C@@H](CCCNC(=N)N)C(N)=O)NC(=O)[C@H](C)NC(=O)[C@H](Cc2csc3ccccc23)NC(=O)[C@H](CCCNC(=N)N)NC(=O)[C@@H](Cc2ccc3ccccc3c2)NC(=O)[C@H](Cc2c[nH]cn2)NC(=O)[C@H](CCC(=O)O)NC1=O
[1]
  Kb: 52.1 nM
[2]
  Kb: 9.45 nM
[3]
  EC50: 11.2 nM
[4]; Ki hMC3-R, Table 6
  Ki: 1.12 nM
[5]
  EC50: 95.7 nM

## CC(=O)N[C@H]1CSSC[C@@H](C(=O)N2CCC[C@H]2C(=O)N2CCC[C@H]2C(=O)N[C@@H](CCCCN)C(=O)N[C@@H](CC(=O)O)C(=O)NCCC(=O)N[C@@H](CCCNC(=N)N)C(=O)N[C@@H](CCCNC(=N)N)C(=O)N[C@@H](CCCNC(=N)N)C(=O)N[C@@H](CCCNC(=N)N)C(=O)N[C@@H](CCCNC(=N)N)C(=O)N[C@@H](CCCNC(=N)N)C(=O)N[C@@H](CCC(N)=O)C(=O)N[C@@H](CCCNC(=N)N)C(=O)N[C@@H](CCCNC(=N)N)C(=O)N[C@@H](CCCNC(=N)N)C(N)=O)NC(=O)[C@H](C)NC(=O)[C@H](Cc2csc3ccccc23)NC(=O)[C@H](CCCNC(=N)N)NC(=O)[C@@H](Cc2ccc3ccccc3c2)NC(=O)[C@H](Cc2c[nH]cn2)NC(=O)[C@H](CCC(=O)O)NC1=O
[1]
  Kb: 153 nM
[2]
  Kb: 33.2 nM
[3]
  EC50: 68.6 nM
[4]; Ki hMC3-R, Table 6
  Ki: 14.3 nM
[5]
  EC50: > 10000 nM

## CC(=O)N[C@@H](CCCNC(=N)N)C(=O)N[C@H]1CSSC(C)(C)[C@@H](C(N)=O)NC(=O)CCCNC(=O)[C@H](Cc2c[nH]c3ccccc23)NC(=O)[C@H](CCCNC(=N)N)NC(=O)[C@@H](Cc2ccccc2)NC(=O)[C@H](Cc2c[nH]cn2)NC1=O [Ac-Arg-c(Cys-His-D-Phe-Arg-Trp-Gaba-Pen)-NH2] (Ac-RCH[dF]RW[GABA][Pen]-NH2; disulfide 2-8 (inferred))
[1]; [8]
  EC50: 8.09 nM
[2]; [9]
  EC50: 0.719 nM
[3]; [10]
  EC50: 4.23 nM
[6]; Table 5, read-out: Ki hMC1-R
  Ki: 1.81 nM
[5]; [11]
  EC50: 23.2 nM

## CC(=O)N[C@H](CCCNC(=N)N)C(=O)N[C@H]1CC(=O)NCCCC[C@@H](C(N)=O)NC(=O)[C@H](C)NC(=O)[C@H](Cc2c[nH]c3ccccc23)NC(=O)[C@H](CCCNC(=N)N)NC(=O)[C@@H](Cc2ccccc2)NC(=O)[C@H](Cc2c[nH]cn2)NC1=O [Ac-D-Arg-c(Asp-His-D-Phe-Arg-Trp-Ala-Lys)-NH2]
[1]; [8]
  EC50: 5.76 nM
[2]; [9]
  EC50: 0.078 nM
[3]; [10]
  EC50: 1.48 nM
[6]; Table 5, read-out: Ki hMC1-R
  Ki: 0.79 nM
[5]; [11]
  EC50: 297 nM

## CC(=O)N[C@H](CCCNC(=N)N)C(=O)N[C@H]1CSSC(C)(C)[C@@H](C(N)=O)NC(=O)CCCNC(=O)[C@H](Cc2c[nH]c3ccccc23)NC(=O)[C@H](CCCNC(=N)N)NC(=O)[C@@H](Cc2ccccc2)NC(=O)[C@H](Cc2c[nH]cn2)NC1=O [Ac-D-Arg-c(Cys-His-D-Phe-Arg-Trp-Gaba-Pen)-NH2] (Ac-[dR]CH[dF]RW[GABA][Pen]-NH2; disulfide 2-8 (inferred))
[1]; [8]
  EC50: 32.4 nM
[2]; [9]
  EC50: 0.959 nM
[3]; [10]
  EC50: 8.43 nM
[6]; Table 5, read-out: Ki hMC1-R
  Ki: 3.93 nM
[5]; [11]
  EC50: 2140 nM

## CC(=O)N[C@@H](CC(C)C)C(=O)N[C@H]1CSSC[C@@H](C(N)=O)NC(=O)CCCNC(=O)[C@H](Cc2c[nH]c3ccccc23)NC(=O)[C@H](CCCNC(=N)N)NC(=O)[C@@H](Cc2ccccc2)NC(=O)[C@H](Cc2c[nH]cn2)NC1=O [Ac-Leu-c(Cys-His-D-Phe-Arg-Trp-Gaba-Cys)-NH2] (Ac-LCH[dF]RW[GABA]C-NH2; disulfide 2-8 (inferred))
[4]; Table 5, read-out: Ki hMC3-R
  Ki: 17.4 nM

## CCCC[C@H](NC(C)=O)C(=O)N[C@H]1CC(=O)NCCCC[C@@H](C(N)=O)NC(=O)CCNC(=O)[C@H](Cc2c[nH]c3ccccc23)NC(=O)[C@H](CCCNC(=N)N)NC(=O)[C@@H](Cc2ccc3ccccc3c2)NC(=O)[C@H](Cc2c[nH]cn2)NC1=O [Ac-Nle-c(Asp-His-D-2-Nal-Arg-Trp-β-Ala-Lys)-NH2]
[3]; Table 9C/9D, read-out: EC50 hMC1-R
  EC50: 0.913 nM
[6]; Table 5, read-out: Ki hMC1-R
  Ki: 0.648 nM

## CCCC[C@H](NC(C)=O)C(=O)N[C@H]1CSSC[C@@H](C(N)=O)NC(=O)CCCNC(=O)[C@H](Cc2c[nH]c3ccccc23)NC(=O)[C@H](CCCNC(=N)N)NC(=O)[C@@H](Cc2ccccc2)NC(=O)[C@H](Cc2cccnc2)NC1=O [Ac-Nle-c(Cys-3-Pal-D-Phe-Arg-Trp-Gaba-Cys)-NH2]
[6]; Table 5, read-out: Ki hMC1-R
  Ki: 21.1 nM
[7]
  Ki: 92.6 nM
[4]; Table 5, read-out: Ki hMC3-R
  Ki: 151 nM

## CCCC[C@H](NC(C)=O)C(=O)N[C@H]1CSSC(C)(C)[C@@H](C(N)=O)NC(=O)[C@H](Cc2c[nH]c3ccccc23)NC(=O)[C@H](CCCNC(=N)N)NC(=O)[C@@H](Cc2ccccc2)NC(=O)[C@H](Cc2c[nH]cn2)NC(=O)[C@@H](C)NC1=O [Ac-Nle-c(Cys-D-Ala-His-D-Phe-Arg-Trp-Pen)-NH2]
[1]
  EC50: 2.03 nM
[2]
  EC50: 0.183 nM
[3]
  EC50: 14.3 nM
[6]; Ki hMC1-R, Table 5
  Ki: 29.1 nM
[4]; Ki hMC3-R, Table 5
  Ki: 22.8 nM
[5]
  EC50: 2240 nM

## CCCC[C@H](NC(C)=O)C(=O)N[C@H]1CSSC[C@@H](C(N)=O)NC(=O)[C@H](Cc2c[nH]c3ccccc23)NC(=O)[C@H](CCCNC(=N)N)NC(=O)[C@@H](Cc2ccccc2)NC(=O)[C@H](Cc2c[nH]cn2)NC(=O)[C@@H](CC2CCCCC2)NC1=O [Ac-Nle-c(Cys-D-Cha-His-D-Phe-Arg-Trp-Cys)-NH2]
[1]; [8]
  EC50: 0.541 nM
[2]; [9]
  EC50: 0.453 nM
[3]; [10]
  EC50: 0.819 nM
[4]; Table 5, read-out: Ki hMC3-R
  Ki: 2.08 nM
[5]; [11]
  EC50: 45.3 nM

## CCCC[C@H](NC(C)=O)C(=O)N[C@H]1CSSC[C@@H](C(N)=O)NC(=O)[C@H](Cc2c[nH]c3ccccc23)NC(=O)[C@H](CCCNC(=N)N)NC(=O)[C@@H](Cc2ccccc2)NC(=O)[C@H](Cc2c[nH]cn2)NC(=O)[C@@H](C(C)(C)C)NC1=O [Ac-Nle-c(Cys-D-Tle-His-D-Phe-Arg-Trp-Cys)-NH2]
[6]; Table 5, read-out: Ki hMC1-R
  Ki: 12 nM
[7]
  Ki: 40 nM

## CCCC[C@H](NC(C)=O)C(=O)N[C@H]1CSSC[C@@H](C(N)=O)NC(=O)[C@H](Cc2c[nH]c3ccccc23)NC(=O)[C@H](CCCNC(=N)N)NC(=O)[C@@H](Cc2ccccc2)NC(=O)[C@H](Cc2c[nH]cn2)NC(=O)[C@@H](C(C)C)NC1=O [Ac-Nle-c(Cys-D-Val-His-D-Phe-Arg-Trp-Cys)-NH2]
[7]
  Ki: 40 nM
[4]; Table 5, read-out: Ki hMC3-R
  Ki: 104 nM

## CCCC[C@H](NC(C)=O)C(=O)N[C@H]1CSSC[C@@H](C(N)=O)NC(=O)CCNC(=O)[C@@H](Cc2c[nH]c3ccccc23)NC(=O)[C@H](CCCNC(=N)N)NC(=O)[C@@H](Cc2ccccc2)NC(=O)[C@H](Cc2c[nH]cn2)NC1=O [Ac-Nle-c(Cys-His-D-Phe-Arg-D-Trp-β-Ala-Cys)-NH2]
[6]; Table 5, read-out: Ki hMC1-R
  Ki: 0.323 nM

## CC(=O)N[C@H](C(=O)N[C@H]1CSSC[C@@H](C(N)=O)NC(=O)CCCNC(=O)[C@H](Cc2c[nH]c3ccccc23)NC(=O)[C@H](CCCNC(=N)N)NC(=O)[C@@H](Cc2ccccc2)NC(=O)[C@H](Cc2c[nH]cn2)NC1=O)C(C)C [Ac-Val-c(Cys-His-D-Phe-Arg-Trp-Gaba-Cys)-NH2] (Ac-VCH[dF]RW[GABA]C-NH2; disulfide 2-8 (inferred))
[6]; Table 5, read-out: Ki hMC1-R
  Ki: 0.256 nM

## CCCC[C@@H]1NC(=O)N(CC(=O)N[C@H]2CSSC[C@@H](C(N)=O)NC(=O)[C@H](Cc3c[nH]c4ccccc34)NC(=O)[C@H](CCCNC(=N)N)NC(=O)[C@@H](Cc3ccccc3)NC(=O)[C@H](Cc3cnc[nH]3)NC(=O)[C@H](CCC(=O)O)NC2=O)C1=O [Hydantoin(C(O)-(Nle-Gly))-c(Cys-Glu-His-D-Phe-Arg-Trp-Cys)-NH2]
[1]; Table 11, read-out: EC50 hMC3
  EC50: 12.2 nM
[2]; Table 11, read-out: EC50 hMC4
  EC50: 0.177 nM
[3]; Table 11, read-out: EC50 hMC1
  EC50: 54.3 nM
[6]; Table 7, read-out: Ki hMC1
  Ki: 14.3 nM

## CCCC[C@H](N)C(=O)N[C@H]1CSSC[C@@H](C(N)=O)NC(=O)CCCNC(=O)[C@H](Cc2c[nH]c3ccccc23)NC(=O)[C@H](CCCNC(=N)N)NC(=O)[C@@H](Cc2ccccc2)NC(=O)[C@H](Cc2c[nH]cn2)NC1=O [Nle-c(Cys-His-D-Phe-Arg-Trp-Gaba-Cys)-NH2] (H-[Nle]CH[dF]RW[GABA]C-NH2; disulfide 2-8)
[1]; [8]
  EC50: 0.1 nM
[2]; [9]
  EC50: 0.021 nM
[3]; [10]
  EC50: 0.37 nM
[6]; Table 5, read-out: Ki hMC1-R
  Ki: 0.05 nM
[5]; [11]
  EC50: 1.7 nM

## N=C(N)NCCC[C@@H]1NC(=O)[C@@H](Cc2ccccc2)NC(=O)[C@H](Cc2c[nH]cn2)NC(=O)[C@@H](NC(=O)[C@@H](N)Cc2ccccc2)CSSC[C@@H](C(N)=O)NC(=O)CCCNC(=O)[C@H](Cc2c[nH]c3ccccc23)NC1=O [Phe-c(Cys-His-D-Phe-Arg-Trp-Gaba-Cys)-NH2] (H-FCH[dF]RW[GABA]C-NH2; disulfide 2-8)
[4]; Table 5, read-out: Ki hMC3-R
  Ki: 15.2 nM
